# Test system: ULK kinase substrate ATG13 (pS318-ATG13) in HCT-116 cells
# Experiment: pATG13 levels of mutant KRas HCT-116 cells after treatment with ULK inhibitors in combination with trametinib (ELISA)
# Assay type: cell-based, human
# Conditions: not given
# Method: pATG13 Levels of Mutant KRas HCT-116 Cells after Treatment with ULK Inhibitors in Combination with Trametinib
# HCT-116 human colon cancer cells (10000 cells/well) were added to a 384-well tissue-culture treated plate in 50 μL of pre-warmed DMEM medium supplemented with 10% characterized fetal bovine serum (Invitrogen, Carlsbad, CA), 100 units/mL penicillin G, and 100 μg/mL streptomycin and allowed to grow overnight at 37° C., 5% CO2, and 95% humidity. The following day, 10 μL of media containing trametinib or DMSO as a control was added to wells. The final concentration of trametinib in wells was 250 nM. A dose response of a test compound (0.6 μL per well) was added. DMSO (0.6 μL) was added to control wells. The plate was briefly shaken to mix wells and then incubated at 37° C. overnight. The next day, the media was aspirated and cells were washed with Dulbecco's Phosphate Buffered Saline (Gibco). Cells were lysed using MPER lysis buffer (Pierce, Rockford, IL) containing Halt Phosphatase and Protease Inhibitors (Pierce, Rockford, IL) and Phosphatase inhibitor cocktail 2 (Sigma, St. Louis, MO) at 4° C. for 10 minutes with shaking.
# (§1) Cellular levels of phospho-Serine 318 ATG13 (pATG13) were measured via an ELISA method. Total ATG13 Antibody (Cell Signaling Cat #13273) was used to coat the wells. The plate was incubated at 4° C. overnight and washed with ELISA wash buffer (Biolegend Cat #421601). The wells were then blocked with assay diluent (Biolegend Cat #421203) for 1 h at rt. Plate wells were washed with ELISA wash buffer. Cell lysate was added to wells and incubated at rt for 2 h. Plate wells were washed with ELISA wash buffer. Biotinylated pS318-ATG13 antibody (Rockland Immunochemicals Cat #600-401-C49) was diluted in assay diluent and added to each well and incubated at rt for 1 h. Plate wells were washed with ELISA wash buffer. Streptavidin linked to horseradish peroxidase (Thermo Fisher Cat #21140) was diluted in assay diluent and added to each well and incubated at rt for 1 h. Plate wells were washed with ELISA wash buffer. High sensitivity TMB substrate (Biolegend Cat #421101) was added to each well and incubated at rt for 20 minutes. The reaction was stopped with 2.0N sulfuric acid. The plate was analyzed at on a plate reader measuring absorbance at 450 nm and 540 nm (background). Signal was calculated by first subtracting the background absorbance at 540 nm from the absorbance at 450 nm for each well. Next, the background corrected absorbance at 450 nm from blank wells was subtracted from test wells. Data was compared to control wells to determine % ATG13 phosphorylation. GraphPad Prism was used to calculate IC50 values.
row,IC50,SMILES
1,≤ 100 nM,"CC/C(Nc1cnn(C2CCN(C(C)C)CC2)c1)=C1/C(=O)Nc2ccc(C(=O)NC[C@H]3CCCO3)cc21 [Example 1, (R,Z)-3-(1-((1-(1-isopropylpiperidin-4-yl)-1H-pyrazol-4-yl)amino)propylidene)-2-oxo-N-((tetrahydrofuran-2-yl)methyl)indoline-5-carboxamide]"
2,≤ 100 nM,CC/C(Nc1ccc(N2CCN(C)CC2)cn1)=C1/C(=O)Nc2ccc(C(=O)NCC(F)(F)F)cc21 [Example 75]
3,≤ 100 nM,CC/C(Nc1cnn(C)c1)=C1/C(=O)Nc2ccc(C(=O)NCC(F)(F)F)cc21 [Example 77]
4,> 600 nM,CC/C(Nc1cnn(C2CCN(C(C)C)CC2)c1)=C1/C(=O)Nc2ccc(C(=O)NCCOC(F)(F)F)cc21 [Example 82]
5,≤ 100 nM,CC/C(Nc1cnn(C2CN(C)C2)c1)=C1/C(=O)Nc2ccc(C(=O)NCC(F)(F)F)cc21 [Example 86]

# Test system: ULK kinase substrate ATG13 (pS318-ATG13) in T24 cells
# Experiment: pATG13 levels of mutant HRas T24 cells after treatment with ULK inhibitors in combination with trametinib (ELISA)
# Assay type: cell-based, human
# Conditions: in combination with trametinib 250 nM
# Method: pATG13 Levels of Mutant HRas T24 Cells after Treatment with ULK Inhibitors in Combination with Trametinib
# T24 human urinary bladder cancer cells (25000 cells/well) were added to a 96-well tissue-culture treated plate in 100 μL of pre-warmed DMEM medium supplemented with 10% characterized fetal bovine serum (Invitrogen, Carlsbad, CA), 100 units/mL penicillin G, and 100 μg/mL streptomycin and allowed to grow overnight at 37° C., 5% CO2, and 95% humidity. The following day, 100 μL of media containing trametinib or DMSO as a control was added to wells. The final concentration of trametinib in wells was 250 nM. A dose response of a test compound (0.5 μL per well) was added. DMSO (0.5 μL) was added to control wells. The plate was briefly shaken to mix wells and then incubated at 37° C. overnight. The next day, the media was aspirated and cells were washed with Dulbecco's Phosphate Buffered Saline (Gibco). Cells were lysed using MPER lysis buffer (Pierce, Rockford, IL) containing Halt Phosphatase and Protease Inhibitors (Pierce, Rockford, IL) and Phosphatase inhibitor cocktail 2 (Sigma, St. Louis, MO) at 4° C. for 10 min with shaking.
# as §1, with “min.” for “minutes.”
row,IC50,SMILES
1,≤ 100 nM,"CC/C(Nc1cnn(C2CCN(C(C)C)CC2)c1)=C1/C(=O)Nc2ccc(C(=O)NC[C@H]3CCCO3)cc21 [Example 1, (R,Z)-3-(1-((1-(1-isopropylpiperidin-4-yl)-1H-pyrazol-4-yl)amino)propylidene)-2-oxo-N-((tetrahydrofuran-2-yl)methyl)indoline-5-carboxamide]"

# From patent US20240150368A1, “ULK INHIBITORS AND METHODS OF USE THEREOF” (Deciphera Pharmaceuticals, LLC, priority 2022, published 2024)
